{"source": "patent US20050233973A1", "about": "“Tri-peptides for antidepressant applications” (priority 1997, published 2005)", "note": "Non-standard residues stand in square brackets, D forms with d. Residues, ends and D or L forms follow the SMILES beside them. pGlu = O=C1CC[C@@H](C(=O)O)N1"}
{"test_system": "Porsolt forced swim animal model of depression", "experiment": "Porsolt swim test", "format": "in vivo, rats", "settings": "dose not stated"}
{"smiles": "CC(C)C[C@H](NC(=O)[C@@H]1CCC(=O)N1)C(=O)N1CCC[C@H]1C(N)=O", "note": "[R^2 = Leu, pGlu-Leu-Pro-NH2] ([pGlu]-Leu-Pro-NH2)", "antidepressant effect compared to saline (total immobility time)": "statistically meaningful behavioral effects were not observed"}
{"smiles": "CC(C)[C@H](NC(=O)[C@@H]1CCC(=O)N1)C(=O)N1CCC[C@H]1C(N)=O", "note": "[R^2 = Val, pGlu-Val-Pro-NH2] ([pGlu]-Val-Pro-NH2)", "antidepressant effect compared to saline (total immobility time)": "statistically meaningful behavioral effects were not observed"}
{"test_system": "Porsolt forced swim animal model of depression", "experiment": "Porsolt swim test", "format": "in vivo, rats", "settings": "low-dose (0.05 mg/kg ip), three injections"}
{"smiles": "NC(=O)[C@@H]1CCCN1C(=O)[C@H](Cc1ccc(O)cc1)NC(=O)[C@@H]1CCC(=O)N1", "note": "[R^2 = Tyr, pGlu-Tyr-Pro-NH2] ([pGlu]-Tyr-Pro-NH2)", "antidepressant effect compared to saline (total immobility time)": "effective"}
{"test_system": "pentobarbital-anesthetized rats", "experiment": "not given", "format": "in vivo, male Wistar rats", "settings": "IC injection of 10 μg", "method": "Twenty minutes after loss of the righting reflex, 10 μL of either sterile saline or peptide of this invention (1 or 10 μg/10 μL sterile saline) was administered by intracisternal (IC) injection. The time from IC injection to recovery of the righting reflex, as measured three times within 10 seconds, was recorded."}
{"smiles": "CC(C)C[C@H](NC(=O)[C@@H]1CCC(=O)N1)C(=O)N1CCC[C@H]1C(N)=O", "note": "[R^2 = Leu, pGlu-Leu-Pro-NH2] ([pGlu]-Leu-Pro-NH2)", "reduction in pentobarbitol-induced sleep time (analeptic effect)": "had an analeptic effect"}
{"smiles": "CC(C)[C@H](NC(=O)[C@@H]1CCC(=O)N1)C(=O)N1CCC[C@H]1C(N)=O", "note": "[R^2 = Val, pGlu-Val-Pro-NH2] ([pGlu]-Val-Pro-NH2)", "reduction in pentobarbitol-induced sleep time (analeptic effect)": "had an analeptic effect"}
{"test_system": "EEP (R^2=Glu) antibody (580B6)", "experiment": "not given", "settings": "tracer 125I-TRH; assay standard = 1.00"}
{"smiles": "CC(C)C[C@H](NC(=O)[C@@H]1CCC(=O)N1)C(=O)N1CCC[C@H]1C(N)=O", "note": "[R^2 = Leu, pGlu-Leu-Pro-NH2] ([pGlu]-Leu-Pro-NH2)", "relative potency for displacement of assay tracer": 5.00}
{"smiles": "NC(=O)[C@@H]1CCCN1C(=O)[C@H](Cc1ccc(O)cc1)NC(=O)[C@@H]1CCC(=O)N1", "note": "[R^2 = Tyr, pGlu-Tyr-Pro-NH2] ([pGlu]-Tyr-Pro-NH2)", "relative potency for displacement of assay tracer": 5.06}
{"smiles": "CC(C)[C@H](NC(=O)[C@@H]1CCC(=O)N1)C(=O)N1CCC[C@H]1C(N)=O", "note": "[R^2 = Val, pGlu-Val-Pro-NH2] ([pGlu]-Val-Pro-NH2)", "relative potency for displacement of assay tracer": 9.24}
{"test_system": "CR-V3-B53 antibody (raised to TRH)", "experiment": "not given", "settings": "tracer 125I-TRH; assay standard = 1.00"}
{"smiles": "CC(C)C[C@H](NC(=O)[C@@H]1CCC(=O)N1)C(=O)N1CCC[C@H]1C(N)=O", "note": "[R^2 = Leu, pGlu-Leu-Pro-NH2] ([pGlu]-Leu-Pro-NH2)", "relative potency for displacement of assay tracer": 0.088}
{"smiles": "NC(=O)[C@@H]1CCCN1C(=O)[C@H](Cc1ccc(O)cc1)NC(=O)[C@@H]1CCC(=O)N1", "note": "[R^2 = Tyr, pGlu-Tyr-Pro-NH2] ([pGlu]-Tyr-Pro-NH2)", "relative potency for displacement of assay tracer": 3.83}
{"smiles": "CC(C)[C@H](NC(=O)[C@@H]1CCC(=O)N1)C(=O)N1CCC[C@H]1C(N)=O", "note": "[R^2 = Val, pGlu-Val-Pro-NH2] ([pGlu]-Val-Pro-NH2)", "relative potency for displacement of assay tracer": 0.087}
{"test_system": "not listed separately", "experiment": "Serum T3 and T4 levels in Porsolt test animals", "format": "in vivo, rats", "settings": "animals of the Porsolt test", "method": "(§1) A Porsolt swim test with rats was used to examine the antidepressant effects of peptides where R^2=Glu or R^2=Phe, as set forth in Lloyd, R. L. et al., Pharamcology, Biochemistry and Behavior, 70:15-22 (2001), incorporated herein by reference. […] No effect of the blocking variable or interaction of the blocking variable with treatment was found.\n(§2) Using the animal models of Example 11, T3 (triiodothyronine) and T4 (thyroxine) levels were tested. Serum T3 was determined by […], using fluorescence polarization of a fixed concentration of a fluorescent analog of T3 as provided in the Abbott IMX System. T4 was also determined by radioimmunoassay. With EEP, no changes in T3 were observed. […] With ELP (where R^2 is Leu) and EFP there was an increase in T3, but this was not correlated to swim scores, with ELP not producing a behavioral effect, and EFP producing a marginal behavioral effect."}
{"smiles": "CC(C)C[C@H](NC(=O)[C@@H]1CCC(=O)N1)C(=O)N1CCC[C@H]1C(N)=O", "note": "[R^2 = Leu, pGlu-Leu-Pro-NH2] ([pGlu]-Leu-Pro-NH2)", "change in T3": "increase"}
{"test_system": "not listed separately", "experiment": "Serum T3 and T4 levels in Porsolt test animals", "format": "in vivo, rats", "settings": "at the dosage used", "method": "as §1, §2"}
{"smiles": "NC(=O)[C@@H]1CCCN1C(=O)[C@H](Cc1ccc(O)cc1)NC(=O)[C@@H]1CCC(=O)N1", "note": "[R^2 = Tyr, pGlu-Tyr-Pro-NH2] ([pGlu]-Tyr-Pro-NH2)", "effect upon T3 or T4 levels": "No effect"}
{"smiles": "CC(C)[C@H](NC(=O)[C@@H]1CCC(=O)N1)C(=O)N1CCC[C@H]1C(N)=O", "note": "[R^2 = Val, pGlu-Val-Pro-NH2] ([pGlu]-Val-Pro-NH2)", "effect upon T3 or T4 levels": "No effect"}
{"molecular_target": "T1, HEK293 cells expressing TRHR-1 (Mus musculus, UniProt P21761)", "T1 construct": "expressed in transfected cells", "T1 sequence (P21761 1-393)": "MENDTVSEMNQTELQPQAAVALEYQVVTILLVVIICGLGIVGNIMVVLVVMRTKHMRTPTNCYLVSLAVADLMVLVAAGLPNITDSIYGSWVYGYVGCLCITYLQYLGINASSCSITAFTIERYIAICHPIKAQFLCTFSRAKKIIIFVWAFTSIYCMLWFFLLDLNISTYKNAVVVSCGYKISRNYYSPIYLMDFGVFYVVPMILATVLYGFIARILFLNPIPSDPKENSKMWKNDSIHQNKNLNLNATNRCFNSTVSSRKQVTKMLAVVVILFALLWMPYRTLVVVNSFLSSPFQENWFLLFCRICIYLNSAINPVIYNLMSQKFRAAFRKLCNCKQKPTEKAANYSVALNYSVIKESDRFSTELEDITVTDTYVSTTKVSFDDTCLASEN", "experiment": "Intracellular calcium response (fura2), TRHR-1 cells", "format": "cell-based", "settings": "not given"}
{"smiles": "CC(C)C[C@H](NC(=O)[C@@H]1CCC(=O)N1)C(=O)N1CCC[C@H]1C(N)=O", "note": "[R^2 = Leu, pGlu-Leu-Pro-NH2] ([pGlu]-Leu-Pro-NH2)", "ability to block the Ca2+ response to low concentrations of TRH (antagonism)": "no effect was found"}
{"test_system": "465B12 antibody (raised to TRH)", "experiment": "not given", "settings": "tracer 125I-TRH; assay standard = 1.00"}
{"smiles": "CC(C)C[C@H](NC(=O)[C@@H]1CCC(=O)N1)C(=O)N1CCC[C@H]1C(N)=O", "note": "[R^2 = Leu, pGlu-Leu-Pro-NH2] ([pGlu]-Leu-Pro-NH2)", "relative potency for displacement of assay tracer": 0.301}
{"smiles": "NC(=O)[C@@H]1CCCN1C(=O)[C@H](Cc1ccc(O)cc1)NC(=O)[C@@H]1CCC(=O)N1", "note": "[R^2 = Tyr, pGlu-Tyr-Pro-NH2] ([pGlu]-Tyr-Pro-NH2)", "relative potency for displacement of assay tracer": 9.85}
{"smiles": "CC(C)[C@H](NC(=O)[C@@H]1CCC(=O)N1)C(=O)N1CCC[C@H]1C(N)=O", "note": "[R^2 = Val, pGlu-Val-Pro-NH2] ([pGlu]-Val-Pro-NH2)", "relative potency for displacement of assay tracer": 0.161}
{"molecular_target": "T2, TRH receptor-2 (TRHR-2) (Rattus norvegicus, UniProt A6IZR3)", "T2 sequence (A6IZR3 1-352)": "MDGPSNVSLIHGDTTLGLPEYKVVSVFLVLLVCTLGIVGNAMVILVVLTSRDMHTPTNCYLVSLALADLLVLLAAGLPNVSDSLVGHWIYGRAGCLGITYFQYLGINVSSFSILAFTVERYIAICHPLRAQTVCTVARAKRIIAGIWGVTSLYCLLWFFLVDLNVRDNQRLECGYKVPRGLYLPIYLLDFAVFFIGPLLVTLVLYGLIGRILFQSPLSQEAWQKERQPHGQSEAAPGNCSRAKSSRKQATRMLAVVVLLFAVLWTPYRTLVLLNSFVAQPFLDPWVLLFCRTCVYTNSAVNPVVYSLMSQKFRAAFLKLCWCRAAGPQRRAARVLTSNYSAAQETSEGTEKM", "experiment": "[3H]TRH competition binding, HEK293 cells expressing TRHR-2", "settings": "not given", "units": {"IC50": "µM"}}
{"smiles": "CC(C)C[C@H](NC(=O)[C@@H]1CCC(=O)N1)C(=O)N1CCC[C@H]1C(N)=O", "note": "[R^2 = Leu, pGlu-Leu-Pro-NH2] ([pGlu]-Leu-Pro-NH2)", "IC50": 1.95}
{"smiles": "NC(=O)[C@@H]1CCCN1C(=O)[C@H](Cc1ccc(O)cc1)NC(=O)[C@@H]1CCC(=O)N1", "note": "[R^2 = Tyr, pGlu-Tyr-Pro-NH2] ([pGlu]-Tyr-Pro-NH2)", "IC50": "> 257"}
{"smiles": "CC(C)[C@H](NC(=O)[C@@H]1CCC(=O)N1)C(=O)N1CCC[C@H]1C(N)=O", "note": "[R^2 = Val, pGlu-Val-Pro-NH2] ([pGlu]-Val-Pro-NH2)", "IC50": "> 308"}
{"molecular_target": "T3, TRH receptor-1 (TRHR-1) (Mus musculus, UniProt P21761)", "T3 sequence (P21761 1-393)": "T1 sequence (P21761 1-393)", "experiment": "[3H]TRH competition binding, HEK293 cells expressing TRHR-1", "settings": "not given", "units": {"IC50": "µM"}}
{"smiles": "CC(C)C[C@H](NC(=O)[C@@H]1CCC(=O)N1)C(=O)N1CCC[C@H]1C(N)=O", "note": "[R^2 = Leu, pGlu-Leu-Pro-NH2] ([pGlu]-Leu-Pro-NH2)", "IC50": 5.47}
{"smiles": "NC(=O)[C@@H]1CCCN1C(=O)[C@H](Cc1ccc(O)cc1)NC(=O)[C@@H]1CCC(=O)N1", "note": "[R^2 = Tyr, pGlu-Tyr-Pro-NH2] ([pGlu]-Tyr-Pro-NH2)", "IC50": "> 257"}
{"smiles": "CC(C)[C@H](NC(=O)[C@@H]1CCC(=O)N1)C(=O)N1CCC[C@H]1C(N)=O", "note": "[R^2 = Val, pGlu-Val-Pro-NH2] ([pGlu]-Val-Pro-NH2)", "IC50": "> 308"}
{"test_system": "control HEK293 cells", "experiment": "Intracellular calcium response (fura2), non-transfected control cells", "format": "cell-based", "settings": "Ca2+-free buffer", "method": "The ability of peptides of the formula pGlu-[…] to stimulate an intracellular calcium response in transfected HEK293 of Example 5 was evaluated, to determine whether the peptides behave as agonists. […] The coverslip was then rinsed and placed in a Sykes-Moore chamber covered with 1 mL Ca^2+ and Mg^2+ free HBSS. Imaging was performed on a Nikon inverted microscope with a DAGE CCD72 camera and […] intensifier system. Cells were alternately excited at 340 and 380 nm and emission was measured at 490 nm; 340/380 ratios were obtained every 1.2 seconds and analyzed using Image-1 software from Universal Imaging Corporation. […] Peak responses from between 33 and 120 individual cells were averaged, and responses to TRH were measured with each set of cells as a standard. Most of the peptides caused a small increase in intracellular Ca^2+ when added to control HEK293 cells bathed in Ca^2+-containing medium, but with the exception of the R^2=Leu peptide, none of them evoked an appreciable Ca^2+ response in Ca^2+-free HBSS, which was used for all experiments."}
{"smiles": "CC(C)C[C@H](NC(=O)[C@@H]1CCC(=O)N1)C(=O)N1CCC[C@H]1C(N)=O", "note": "[R^2 = Leu, pGlu-Leu-Pro-NH2] ([pGlu]-Leu-Pro-NH2)", "Ca2+ response": "small Ca^2+ transient"}
{"molecular_target": "T4, HEK293 cells expressing TRHR-2 (Rattus norvegicus, UniProt A6IZR3)", "T4 sequence (A6IZR3 1-352)": "T2 sequence (A6IZR3 1-352)", "experiment": "Intracellular calcium response (fura2), TRHR-2 cells", "format": "cell-based", "settings": "not given"}
{"smiles": "CC(C)C[C@H](NC(=O)[C@@H]1CCC(=O)N1)C(=O)N1CCC[C@H]1C(N)=O", "note": "[R^2 = Leu, pGlu-Leu-Pro-NH2] ([pGlu]-Leu-Pro-NH2)", "ability to block the Ca2+ response to low concentrations of TRH (antagonism)": "no effect was found"}
